Laboratory results reported in PubChem BioAssay (NCI).
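Where inhibition never reached the appropriate level, the endpoint shown equals the highest concentration tested. Otherwise, values were interpolated linearly from a five-concentration, 48-hour dose response in 96-well plates. TGI: concentration producing complete growth inhibition.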

How the values were obtained:
Assay in all cases: inhibition of tumour cell growth, NCI panel, 48 h
ACHN renal = test system: ACHN renal
HCT-116 colon = test system: HCT-116 colon
CCRF-CEM leukemia = test system: CCRF-CEM leukemia
SF-295 CNS = test system: SF-295 CNS
UO-31 renal = test system: UO-31 renal
EKVX NSCLC = test system: EKVX NSCLC
A498 renal = test system: A498 renal
MOLT-4 leukemia = test system: MOLT-4 leukemia
HOP-92 NSCLC = test system: HOP-92 NSCLC
RXF 393 renal = test system: RXF 393 renal
SW-620 colon = test system: SW-620 colon
PC-3 prostate = test system: PC-3 prostate
NCI-H23 lung = test system: NCI-H23 lung
UACC-62 melanoma = test system: UACC-62 melanoma
HT29 colon = test system: HT29 colon
NCI/ADR-RES ovarian = test system: NCI/ADR-RES ovarian
KM12 colon = test system: KM12 colon
DU-145 prostate = test system: DU-145 prostate
HCC-2998 colon = test system: HCC-2998 colon
M14 melanoma = test system: M14 melanoma
HCT-15 colon = test system: HCT-15 colon
SNB-19 CNS = test system: SNB-19 CNS
786-0 renal = test system: 786-0 renal
HL-60(TB) leukemia = test system: HL-60(TB) leukemia
OVCAR-4 ovarian = test system: OVCAR-4 ovarian
OVCAR-3 ovarian = test system: OVCAR-3 ovarian
IGROV1 ovarian = test system: IGROV1 ovarian
HS 578T breast = test system: HS 578T breast
SK-MEL-5 melanoma = test system: SK-MEL-5 melanoma
OVCAR-5 ovarian = test system: OVCAR-5 ovarian
OVCAR-8 ovarian = test system: OVCAR-8 ovarian
NCI-H460 lung = test system: NCI-H460 lung
SF-539 CNS = test system: SF-539 CNS
SK-MEL-2 melanoma = test system: SK-MEL-2 melanoma
TK-10 renal = test system: TK-10 renal
MALME-3M melanoma = test system: MALME-3M melanoma
MDA-MB-435 = test system: MDA-MB-435
SNB-75 CNS = test system: SNB-75 CNS
MDA-MB-231 breast = test system: MDA-MB-231 breast
LOX IMVI melanoma = test system: LOX IMVI melanoma
HOP-62 NSCLC = test system: HOP-62 NSCLC
T-47D breast = test system: T-47D breast
NCI-H226 lung = test system: NCI-H226 lung
MDA-N = test system: MDA-N
SK-OV-3 ovarian = test system: SK-OV-3 ovarian
A549 NSCLC = test system: A549 NSCLC
SF-268 CNS = test system: SF-268 CNS
UACC-257 melanoma = test system: UACC-257 melanoma
COLO 205 colon = test system: COLO 205 colon
BT-549 breast = test system: BT-549 breast
U251 CNS = test system: U251 CNS
SR leukemia = test system: SR leukemia
SN12C renal = test system: SN12C renal
CAKI-1 renal = test system: CAKI-1 renal
MCF7 breast = test system: MCF7 breast
K-562 leukemia = test system: K-562 leukemia
RPMI-8226 leukemia = test system: RPMI-8226 leukemia
NCI-H522 lung = test system: NCI-H522 lung
SK-MEL-28 melanoma = test system: SK-MEL-28 melanoma

CCCCc1ccc(Nc2nc3c(ncn3COCCBr)c(=O)[nH]2)cc1
TGI (ACHN renal): > 100 µM | TGI (HCT-116 colon): > 100 µM | TGI (CCRF-CEM leukemia): > 100 µM | TGI (SF-295 CNS): > 100 µM | TGI (UO-31 renal): > 100 µM | TGI (EKVX NSCLC): > 100 µM | TGI (A498 renal): > 100 µM | TGI (MOLT-4 leukemia): > 100 µM | TGI (HOP-92 NSCLC): > 100 µM | TGI (RXF 393 renal): > 100 µM | TGI (SW-620 colon): > 100 µM | TGI (PC-3 prostate): > 100 µM | TGI (NCI-H23 lung): > 100 µM | TGI (UACC-62 melanoma): > 100 µM | TGI (HT29 colon): > 100 µM | TGI (NCI/ADR-RES ovarian): > 100 µM | TGI (KM12 colon): > 100 µM | TGI (DU-145 prostate): > 100 µM | TGI (HCC-2998 colon): > 100 µM | TGI (M14 melanoma): > 100 µM | TGI (HCT-15 colon): > 100 µM | TGI (SNB-19 CNS): > 100 µM | TGI (786-0 renal): > 100 µM | TGI (HL-60(TB) leukemia): > 100 µM | TGI (OVCAR-4 ovarian): > 100 µM | TGI (OVCAR-3 ovarian): > 100 µM | TGI (IGROV1 ovarian): > 100 µM | TGI (HS 578T breast): > 100 µM | TGI (SK-MEL-5 melanoma): > 100 µM | TGI (OVCAR-5 ovarian): > 100 µM | TGI (OVCAR-8 ovarian): > 100 µM | TGI (NCI-H460 lung): > 100 µM | TGI (SF-539 CNS): > 100 µM | TGI (SK-MEL-2 melanoma): > 100 µM | TGI (TK-10 renal): > 100 µM | TGI (MALME-3M melanoma): > 100 µM | TGI (MDA-MB-435): > 100 µM | TGI (SNB-75 CNS): > 100 µM | TGI (MDA-MB-231 breast): > 100 µM | TGI (LOX IMVI melanoma): > 100 µM | TGI (HOP-62 NSCLC): > 100 µM | TGI (T-47D breast): > 100 µM | TGI (NCI-H226 lung): > 100 µM | TGI (MDA-N): > 100 µM | TGI (SK-OV-3 ovarian): > 100 µM | TGI (A549 NSCLC): > 100 µM | TGI (SF-268 CNS): > 100 µM | TGI (UACC-257 melanoma): > 100 µM | TGI (COLO 205 colon): > 100 µM | TGI (BT-549 breast): > 100 µM | TGI (U251 CNS): > 100 µM | TGI (SR leukemia): > 100 µM | TGI (SN12C renal): > 100 µM | TGI (CAKI-1 renal): > 100 µM | TGI (MCF7 breast): > 100 µM | TGI (K-562 leukemia): > 100 µM | TGI (RPMI-8226 leukemia): > 100 µM | TGI (NCI-H522 lung): > 100 µM

O=c1oc2c([N+](=O)[O-])cc([N+](=O)[O-])cc2c2ccccc12
TGI (ACHN renal): > 100 µM | TGI (HCT-116 colon): > 100 µM | TGI (CCRF-CEM leukemia): > 100 µM | TGI (SF-295 CNS): > 100 µM | TGI (EKVX NSCLC): > 100 µM | TGI (A498 renal): > 100 µM | TGI (MOLT-4 leukemia): > 100 µM | TGI (HOP-92 NSCLC): > 100 µM | TGI (RXF 393 renal): > 100 µM | TGI (SW-620 colon): > 100 µM | TGI (PC-3 prostate): > 100 µM | TGI (NCI-H23 lung): > 100 µM | TGI (UACC-62 melanoma): > 100 µM | TGI (HT29 colon): > 100 µM | TGI (NCI/ADR-RES ovarian): > 100 µM | TGI (DU-145 prostate): > 100 µM | TGI (HCC-2998 colon): > 100 µM | TGI (M14 melanoma): > 100 µM | TGI (HCT-15 colon): > 100 µM | TGI (SNB-19 CNS): > 100 µM | TGI (SK-MEL-28 melanoma): > 100 µM | TGI (786-0 renal): > 100 µM | TGI (HL-60(TB) leukemia): > 100 µM | TGI (OVCAR-4 ovarian): > 100 µM | TGI (OVCAR-3 ovarian): > 100 µM | TGI (IGROV1 ovarian): > 100 µM | TGI (HS 578T breast): > 100 µM | TGI (SK-MEL-5 melanoma): > 100 µM | TGI (OVCAR-5 ovarian): > 100 µM | TGI (OVCAR-8 ovarian): > 100 µM | TGI (NCI-H460 lung): > 100 µM | TGI (SF-539 CNS): > 100 µM | TGI (SK-MEL-2 melanoma): > 100 µM | TGI (TK-10 renal): > 100 µM | TGI (MALME-3M melanoma): > 100 µM | TGI (MDA-MB-435): > 100 µM | TGI (SNB-75 CNS): > 100 µM | TGI (MDA-MB-231 breast): > 100 µM | TGI (LOX IMVI melanoma): > 100 µM | TGI (HOP-62 NSCLC): > 100 µM | TGI (T-47D breast): > 100 µM | TGI (NCI-H226 lung): > 100 µM | TGI (MDA-N): > 100 µM | TGI (A549 NSCLC): > 100 µM | TGI (SF-268 CNS): > 100 µM | TGI (UACC-257 melanoma): > 100 µM | TGI (COLO 205 colon): > 100 µM | TGI (BT-549 breast): > 100 µM | TGI (U251 CNS): > 100 µM | TGI (SR leukemia): > 100 µM | TGI (SN12C renal): > 100 µM | TGI (CAKI-1 renal): > 100 µM | TGI (MCF7 breast): > 100 µM | TGI (K-562 leukemia): > 100 µM | TGI (RPMI-8226 leukemia): > 100 µM | TGI (NCI-H522 lung): > 100 µM

CCCCCCCCCCCCCCCC(=O)Nc1ccn(C2CC(OP(=O)(O)OCC3OC(n4cc(F)c(=O)[nH]c4=O)CC3OC(C)=O)C(CO)O2)c(=O)n1 (configuration not stated)
TGI (ACHN renal): 3.54 µM | TGI (HCT-116 colon): > 100 µM | TGI (CCRF-CEM leukemia): > 100 µM | TGI (SF-295 CNS): > 45.2 µM | TGI (UO-31 renal): 2.75 µM | TGI (EKVX NSCLC): > 100 µM | TGI (A498 renal): > 100 µM | TGI (MOLT-4 leukemia): 34.4 µM | TGI (HOP-92 NSCLC): > 100 µM | TGI (RXF 393 renal): > 71 µM | TGI (SW-620 colon): > 100 µM | TGI (PC-3 prostate): 25.2 µM | TGI (NCI-H23 lung): > 63.9 µM | TGI (UACC-62 melanoma): > 47.2 µM | TGI (HT29 colon): 52.8 µM | TGI (NCI/ADR-RES ovarian): 46.1 µM | TGI (KM12 colon): 48.1 µM | TGI (DU-145 prostate): > 100 µM | TGI (HCC-2998 colon): > 36.5 µM | TGI (M14 melanoma): > 39.7 µM | TGI (HCT-15 colon): > 65.4 µM | TGI (SNB-19 CNS): > 63.2 µM | TGI (SK-MEL-28 melanoma): > 100 µM | TGI (786-0 renal): > 100 µM | TGI (HL-60(TB) leukemia): > 21.9 µM | TGI (OVCAR-4 ovarian): > 100 µM | TGI (OVCAR-3 ovarian): > 100 µM | TGI (IGROV1 ovarian): > 100 µM | TGI (HS 578T breast): 90.9 µM | TGI (SK-MEL-5 melanoma): > 96.5 µM | TGI (OVCAR-5 ovarian): > 64.5 µM | TGI (OVCAR-8 ovarian): > 52.3 µM | TGI (NCI-H460 lung): > 100 µM | TGI (SF-539 CNS): > 39.5 µM | TGI (SK-MEL-2 melanoma): > 63.4 µM | TGI (TK-10 renal): > 100 µM | TGI (MDA-MB-435): > 94.8 µM | TGI (SNB-75 CNS): > 51.6 µM | TGI (MDA-MB-231 breast): > 61.5 µM | TGI (LOX IMVI melanoma): > 100 µM | TGI (HOP-62 NSCLC): 13.3 µM | TGI (T-47D breast): > 100 µM | TGI (NCI-H226 lung): > 100 µM | TGI (MDA-N): > 100 µM | TGI (SK-OV-3 ovarian): > 51.6 µM | TGI (A549 NSCLC): > 41.3 µM | TGI (SF-268 CNS): > 44.4 µM | TGI (UACC-257 melanoma): > 100 µM | TGI (COLO 205 colon): > 66.3 µM | TGI (BT-549 breast): 62.2 µM | TGI (U251 CNS): 71.8 µM | TGI (SR leukemia): 22.7 µM | TGI (SN12C renal): > 49.9 µM | TGI (CAKI-1 renal): > 35.7 µM | TGI (MCF7 breast): > 100 µM | TGI (K-562 leukemia): > 100 µM | TGI (RPMI-8226 leukemia): 27.9 µM | TGI (NCI-H522 lung): 37.7 µM
